{"source": "patent US11725011B2", "about": "“Bicyclic urea kinase inhibitors and uses thereof” (The Broad Institute, Inc., priority 2016, dated 2023)", "test_in_all_cases": "KINOMEscan", "format_in_all_cases": "binding", "settings_in_all_cases": "1 uM", "key": {"[1]": {"target": "MYO3A (Homo sapiens (Human), UniProt Q8NEV4)"}, "[2]": {"target": "VRK2 (Homo sapiens (Human), UniProt Q86Y07)"}, "[3]": {"target": "DYRK1B (Homo sapiens (Human), UniProt Q9Y463)", "sequence (Q9Y463 whole entry)": "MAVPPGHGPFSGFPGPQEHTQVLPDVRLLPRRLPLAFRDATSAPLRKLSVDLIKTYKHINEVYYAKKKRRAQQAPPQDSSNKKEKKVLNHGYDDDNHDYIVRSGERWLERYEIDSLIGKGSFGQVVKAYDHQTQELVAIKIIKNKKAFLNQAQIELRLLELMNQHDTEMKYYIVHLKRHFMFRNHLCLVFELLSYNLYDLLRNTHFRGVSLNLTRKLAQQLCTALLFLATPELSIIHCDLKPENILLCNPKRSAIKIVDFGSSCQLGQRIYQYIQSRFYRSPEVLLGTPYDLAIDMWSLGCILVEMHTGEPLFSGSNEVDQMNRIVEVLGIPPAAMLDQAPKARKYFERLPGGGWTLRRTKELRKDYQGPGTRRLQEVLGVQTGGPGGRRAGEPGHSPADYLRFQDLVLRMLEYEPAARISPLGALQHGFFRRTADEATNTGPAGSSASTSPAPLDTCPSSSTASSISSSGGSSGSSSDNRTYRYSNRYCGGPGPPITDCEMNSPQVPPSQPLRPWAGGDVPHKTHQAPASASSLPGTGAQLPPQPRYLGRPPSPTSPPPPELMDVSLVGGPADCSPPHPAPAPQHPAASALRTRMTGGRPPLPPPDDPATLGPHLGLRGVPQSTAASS"}, "[4]": {"target": "STK36 (Homo sapiens (Human), UniProt Q9NRP7)"}, "[5]": {"target": "PLK2 (Homo sapiens (Human), UniProt Q9NYY3)"}, "[6]": {"target": "CAMKK1 (Homo sapiens (Human), UniProt Q8N5S9)"}, "[7]": {"target": "MEK4 (Homo sapiens (Human), UniProt P45985)"}, "[8]": {"target": "CLK2 (Homo sapiens (Human), UniProt P49760)"}, "[9]": {"target": "CSNK1G2 (Homo sapiens (Human), UniProt P78368)"}, "[10]": {"target": "MKK7 (Homo sapiens (Human), UniProt O14733)"}, "[11]": {"target": "MST4 (Homo sapiens (Human), UniProt Q9P289)"}, "[12]": {"target": "TRKC (Homo sapiens (Human), UniProt Q16288)", "sequence (Q16288 32-839)": "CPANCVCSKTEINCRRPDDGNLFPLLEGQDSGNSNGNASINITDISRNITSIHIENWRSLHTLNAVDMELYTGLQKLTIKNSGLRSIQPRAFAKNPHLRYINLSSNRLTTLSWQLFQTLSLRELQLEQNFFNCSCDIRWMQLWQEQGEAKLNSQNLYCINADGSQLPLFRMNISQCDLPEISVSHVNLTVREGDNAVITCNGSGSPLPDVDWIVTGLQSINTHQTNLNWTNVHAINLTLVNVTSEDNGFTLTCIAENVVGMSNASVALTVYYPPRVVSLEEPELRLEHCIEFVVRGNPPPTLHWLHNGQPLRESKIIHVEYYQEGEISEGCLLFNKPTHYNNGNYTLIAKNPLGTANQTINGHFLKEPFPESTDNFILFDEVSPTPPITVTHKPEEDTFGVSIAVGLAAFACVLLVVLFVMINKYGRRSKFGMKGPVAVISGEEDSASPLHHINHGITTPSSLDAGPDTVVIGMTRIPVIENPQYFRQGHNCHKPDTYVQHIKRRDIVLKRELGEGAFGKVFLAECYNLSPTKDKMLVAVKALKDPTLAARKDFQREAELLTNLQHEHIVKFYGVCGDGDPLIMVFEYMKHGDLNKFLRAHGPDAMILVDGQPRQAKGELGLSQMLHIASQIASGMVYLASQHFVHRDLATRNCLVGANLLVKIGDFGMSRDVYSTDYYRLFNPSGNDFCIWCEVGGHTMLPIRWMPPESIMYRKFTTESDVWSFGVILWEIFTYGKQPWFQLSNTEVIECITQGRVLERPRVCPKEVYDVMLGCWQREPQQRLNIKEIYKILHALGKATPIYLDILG"}, "[13]": {"target": "PFTK1 (Homo sapiens (Human), UniProt O94921)"}, "[14]": {"target": "RIPK5 (Homo sapiens (Human), UniProt Q6XUX3)", "sequence (Q6XUX3 whole entry)": "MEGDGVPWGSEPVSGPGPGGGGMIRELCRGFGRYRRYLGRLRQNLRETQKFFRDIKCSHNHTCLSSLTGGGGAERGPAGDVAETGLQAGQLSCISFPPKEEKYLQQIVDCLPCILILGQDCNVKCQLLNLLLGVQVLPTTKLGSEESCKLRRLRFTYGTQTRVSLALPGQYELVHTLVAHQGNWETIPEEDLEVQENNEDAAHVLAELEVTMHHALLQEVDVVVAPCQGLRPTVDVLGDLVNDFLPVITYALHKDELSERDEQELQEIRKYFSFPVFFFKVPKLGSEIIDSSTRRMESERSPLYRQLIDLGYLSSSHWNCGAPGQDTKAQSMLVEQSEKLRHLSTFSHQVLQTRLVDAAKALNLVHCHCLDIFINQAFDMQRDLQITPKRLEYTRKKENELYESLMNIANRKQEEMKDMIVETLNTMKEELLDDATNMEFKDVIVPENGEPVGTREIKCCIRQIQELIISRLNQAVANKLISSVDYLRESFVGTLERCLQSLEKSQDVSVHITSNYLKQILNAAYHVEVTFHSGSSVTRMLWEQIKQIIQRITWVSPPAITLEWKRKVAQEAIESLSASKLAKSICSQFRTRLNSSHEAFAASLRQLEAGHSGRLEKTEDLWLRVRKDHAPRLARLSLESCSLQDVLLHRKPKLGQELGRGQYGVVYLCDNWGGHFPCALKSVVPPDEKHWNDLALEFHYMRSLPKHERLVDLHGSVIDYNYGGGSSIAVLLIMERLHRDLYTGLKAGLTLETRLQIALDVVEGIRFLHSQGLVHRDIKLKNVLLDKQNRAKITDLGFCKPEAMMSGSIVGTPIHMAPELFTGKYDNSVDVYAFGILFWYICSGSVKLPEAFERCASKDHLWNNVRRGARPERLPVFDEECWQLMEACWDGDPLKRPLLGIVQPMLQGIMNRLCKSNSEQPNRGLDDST"}, "[15]": {"target": "PCTK1 (Homo sapiens (Human), UniProt Q00536)", "sequence (Q00536 whole entry)": "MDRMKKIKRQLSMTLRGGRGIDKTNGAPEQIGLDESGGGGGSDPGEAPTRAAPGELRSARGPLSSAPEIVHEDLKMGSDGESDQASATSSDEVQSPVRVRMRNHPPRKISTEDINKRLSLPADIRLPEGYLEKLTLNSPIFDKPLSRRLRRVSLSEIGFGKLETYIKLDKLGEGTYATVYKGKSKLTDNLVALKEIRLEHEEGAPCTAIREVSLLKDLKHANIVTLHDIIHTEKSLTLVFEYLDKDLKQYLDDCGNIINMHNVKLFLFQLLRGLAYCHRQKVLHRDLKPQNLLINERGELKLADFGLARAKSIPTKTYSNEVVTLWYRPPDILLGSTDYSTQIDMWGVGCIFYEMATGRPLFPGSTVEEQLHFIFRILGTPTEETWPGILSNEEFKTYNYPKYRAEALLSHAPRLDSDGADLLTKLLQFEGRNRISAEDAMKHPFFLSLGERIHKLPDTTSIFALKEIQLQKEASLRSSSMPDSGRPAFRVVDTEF"}, "[16]": {"target": "EPHA2 (Homo sapiens (Human), UniProt P29317)"}, "[17]": {"target": "CAMK1 (Homo sapiens (Human), UniProt Q14012)"}, "[18]": {"target": "TAOK3 (Homo sapiens (Human), UniProt Q9H2K8)", "sequence (Q9H2K8 whole entry)": "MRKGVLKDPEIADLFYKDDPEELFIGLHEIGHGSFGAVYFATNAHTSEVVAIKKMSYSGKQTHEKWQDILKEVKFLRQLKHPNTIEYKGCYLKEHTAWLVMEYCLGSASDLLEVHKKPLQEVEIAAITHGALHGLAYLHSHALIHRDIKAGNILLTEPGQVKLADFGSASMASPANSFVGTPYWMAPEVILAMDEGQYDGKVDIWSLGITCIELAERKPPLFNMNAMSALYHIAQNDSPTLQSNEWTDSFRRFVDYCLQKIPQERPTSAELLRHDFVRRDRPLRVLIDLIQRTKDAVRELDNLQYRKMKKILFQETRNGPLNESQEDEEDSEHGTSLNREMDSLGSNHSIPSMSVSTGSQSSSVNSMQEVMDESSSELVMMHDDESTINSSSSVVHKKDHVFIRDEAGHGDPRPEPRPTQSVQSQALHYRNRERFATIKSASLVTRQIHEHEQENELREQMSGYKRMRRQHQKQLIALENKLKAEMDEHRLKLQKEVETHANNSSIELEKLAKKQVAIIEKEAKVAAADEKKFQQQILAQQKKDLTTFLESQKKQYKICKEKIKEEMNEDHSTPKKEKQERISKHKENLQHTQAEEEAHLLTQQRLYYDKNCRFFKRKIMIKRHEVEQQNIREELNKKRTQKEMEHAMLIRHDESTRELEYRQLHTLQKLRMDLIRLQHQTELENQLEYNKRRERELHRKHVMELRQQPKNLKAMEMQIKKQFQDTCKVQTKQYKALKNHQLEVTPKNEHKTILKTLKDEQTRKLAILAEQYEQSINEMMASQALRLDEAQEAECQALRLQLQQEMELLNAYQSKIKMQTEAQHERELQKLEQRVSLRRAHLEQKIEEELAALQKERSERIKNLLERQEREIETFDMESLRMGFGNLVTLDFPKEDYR"}, "[19]": {"target": "PIK3CA (E545K) (Homo sapiens (Human), UniProt P42336, E545K)"}, "[20]": {"target": "WNK3 (Homo sapiens (Human), UniProt Q9BYP7)"}, "[21]": {"target": "LTK (Homo sapiens (Human), UniProt P29376)"}, "[22]": {"target": "MINK (Homo sapiens (Human), UniProt Q8N4C8)", "sequence (Q8N4C8 whole entry)": "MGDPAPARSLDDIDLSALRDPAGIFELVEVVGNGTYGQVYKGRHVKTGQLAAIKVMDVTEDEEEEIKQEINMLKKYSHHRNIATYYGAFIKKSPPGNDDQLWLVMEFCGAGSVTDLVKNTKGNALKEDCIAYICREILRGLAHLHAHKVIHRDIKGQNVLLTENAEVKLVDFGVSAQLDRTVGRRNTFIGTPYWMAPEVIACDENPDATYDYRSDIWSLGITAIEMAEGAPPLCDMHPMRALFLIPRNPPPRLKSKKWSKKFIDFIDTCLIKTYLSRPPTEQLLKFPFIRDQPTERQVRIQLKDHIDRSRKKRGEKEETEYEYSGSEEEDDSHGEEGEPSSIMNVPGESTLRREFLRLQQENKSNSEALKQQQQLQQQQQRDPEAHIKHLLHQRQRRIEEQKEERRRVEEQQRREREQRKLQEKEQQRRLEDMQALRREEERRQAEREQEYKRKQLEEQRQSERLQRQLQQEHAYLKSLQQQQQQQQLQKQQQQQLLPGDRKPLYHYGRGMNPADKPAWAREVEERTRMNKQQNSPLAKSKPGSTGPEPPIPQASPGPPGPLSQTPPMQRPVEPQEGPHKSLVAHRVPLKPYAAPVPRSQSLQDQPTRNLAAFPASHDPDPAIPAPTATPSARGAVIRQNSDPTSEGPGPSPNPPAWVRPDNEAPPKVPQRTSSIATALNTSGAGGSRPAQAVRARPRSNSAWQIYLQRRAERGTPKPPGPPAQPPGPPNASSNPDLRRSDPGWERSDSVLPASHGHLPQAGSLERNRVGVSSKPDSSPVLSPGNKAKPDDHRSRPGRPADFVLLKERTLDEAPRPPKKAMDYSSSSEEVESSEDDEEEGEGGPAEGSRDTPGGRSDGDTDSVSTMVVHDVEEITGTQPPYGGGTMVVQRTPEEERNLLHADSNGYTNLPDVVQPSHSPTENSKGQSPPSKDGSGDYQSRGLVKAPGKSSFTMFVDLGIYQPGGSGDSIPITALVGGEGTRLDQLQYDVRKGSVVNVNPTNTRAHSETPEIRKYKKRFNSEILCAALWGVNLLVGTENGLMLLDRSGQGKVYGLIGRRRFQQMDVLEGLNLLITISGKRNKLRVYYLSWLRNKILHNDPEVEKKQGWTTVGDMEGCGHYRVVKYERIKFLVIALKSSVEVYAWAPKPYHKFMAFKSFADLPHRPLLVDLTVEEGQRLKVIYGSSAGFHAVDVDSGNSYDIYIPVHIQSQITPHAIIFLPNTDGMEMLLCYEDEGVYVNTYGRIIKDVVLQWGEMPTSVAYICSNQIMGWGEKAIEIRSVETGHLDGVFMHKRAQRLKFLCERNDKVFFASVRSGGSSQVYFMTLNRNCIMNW"}, "[23]": {"target": "ROS1 (Homo sapiens (Human), UniProt P08922)"}, "[24]": {"target": "p38-alpha (Homo sapiens (Human), UniProt Q16539)"}, "[25]": {"target": "BMPR2 (Homo sapiens (Human), UniProt Q13873)"}, "[26]": {"target": "TGFBR1 (Homo sapiens (Human), UniProt P36897)"}, "[27]": {"target": "EGFR (L858R) (Homo sapiens (Human), UniProt P00533, L858R)"}, "[28]": {"target": "FAK (Homo sapiens (Human), UniProt Q05397)"}, "[29]": {"target": "YANK1 (Homo sapiens (Human), UniProt Q8WU08)"}, "[30]": {"target": "EGFR (L747-S752del, P753S) (Homo sapiens (Human), UniProt P00533, DEL747-752/P753S)"}, "[31]": {"target": "PRKCD (Homo sapiens (Human), UniProt Q05655)"}, "[32]": {"target": "PRKG1 (Homo sapiens (Human), UniProt Q13976)"}, "[33]": {"target": "CTK (Homo sapiens (Human), UniProt P42679)"}, "[34]": {"target": "FGFR3 (Homo sapiens (Human), UniProt P22607)"}, "[35]": {"target": "ACVR1B (Homo sapiens (Human), UniProt P36896)"}, "[36]": {"target": "PIK3CA (E545A) (Homo sapiens (Human), UniProt P42336, E545A)"}, "[37]": {"target": "MYLK2 (Homo sapiens (Human), UniProt Q9H1R3)"}, "[38]": {"target": "GRK1 (Homo sapiens (Human), UniProt Q15835)"}, "[39]": {"target": "MUSK (Homo sapiens (Human), UniProt O15146)"}, "[40]": {"target": "CDKL2 (Homo sapiens (Human), UniProt Q92772)"}, "[41]": {"target": "DLK (Homo sapiens (Human), UniProt Q12852)"}}, "data": [{"compound": "COc1ccc(N2C(=O)N(c3c(C)cccc3C)Cc3cnc(Nc4ccc(N5CCN(C)CC5)cc4)nc32)c(OC)c1", "note": "[HG-11-136-01]", "values": [{"measurement": "KINOMEscan MYO3A", "setting": "[1]", "value": 40}, {"measurement": "KINOMEscan VRK2", "setting": "[2]", "value": 86}, {"measurement": "KINOMEscan DYRK1B", "setting": "[3]", "value": 60}, {"measurement": "KINOMEscan STK36", "setting": "[4]", "value": 0}, {"measurement": "KINOMEscan PLK2", "setting": "[5]", "value": 21}, {"measurement": "KINOMEscan CAMKK1", "setting": "[6]", "value": 94}, {"measurement": "KINOMEscan MEK4", "setting": "[7]", "value": 48}, {"measurement": "KINOMEscan CLK2", "setting": "[8]", "value": 35}, {"measurement": "KINOMEscan CSNK1G2", "setting": "[9]", "value": 100}, {"measurement": "KINOMEscan MKK7", "setting": "[10]", "value": 80}, {"measurement": "KINOMEscan MST4", "setting": "[11]", "value": 2.8}, {"measurement": "KINOMEscan TRKC", "setting": "[12]", "value": 71}, {"measurement": "KINOMEscan PFTK1", "setting": "[13]", "value": 100}, {"measurement": "KINOMEscan RIPK5", "setting": "[14]", "value": 2.8}, {"measurement": "KINOMEscan PCTK1", "setting": "[15]", "value": 73}, {"measurement": "KINOMEscan EPHA2", "setting": "[16]", "value": 0.6}, {"measurement": "KINOMEscan CAMK1", "setting": "[17]", "value": 82}, {"measurement": "KINOMEscan TAOK3", "setting": "[18]", "value": 1.8}, {"measurement": "KINOMEscan PIK3CA (E545K)", "setting": "[19]", "value": 98}, {"measurement": "KINOMEscan WNK3", "setting": "[20]", "value": 50}, {"measurement": "KINOMEscan LTK", "setting": "[21]", "value": 18}, {"measurement": "KINOMEscan MINK", "setting": "[22]", "value": 2.8}, {"measurement": "KINOMEscan ROS1", "setting": "[23]", "value": 63}, {"measurement": "KINOMEscan p38-alpha", "setting": "[24]", "value": 1}, {"measurement": "KINOMEscan BMPR2", "setting": "[25]", "value": 77}, {"measurement": "KINOMEscan TGFBR1", "setting": "[26]", "value": 33}, {"measurement": "KINOMEscan EGFR (L858R)", "setting": "[27]", "value": 0.1}, {"measurement": "KINOMEscan FAK", "setting": "[28]", "value": 24}, {"measurement": "KINOMEscan YANK1", "setting": "[29]", "value": 0.2}, {"measurement": "KINOMEscan EGFR (L747-S752del, P753S)", "setting": "[30]", "value": 0.95}, {"measurement": "KINOMEscan PRKCD", "setting": "[31]", "value": 94}, {"measurement": "KINOMEscan PRKG1", "setting": "[32]", "value": 100}, {"measurement": "KINOMEscan CTK", "setting": "[33]", "value": 33}, {"measurement": "KINOMEscan FGFR3", "setting": "[34]", "value": 0.95}, {"measurement": "KINOMEscan ACVR1B", "setting": "[35]", "value": 9.6}, {"measurement": "KINOMEscan PIK3CA (E545A)", "setting": "[36]", "value": 69}, {"measurement": "KINOMEscan MYLK2", "setting": "[37]", "value": 81}, {"measurement": "KINOMEscan GRK1", "setting": "[38]", "value": 77}, {"measurement": "KINOMEscan MUSK", "setting": "[39]", "value": 86}, {"measurement": "KINOMEscan CDKL2", "setting": "[40]", "value": 14}, {"measurement": "KINOMEscan DLK", "setting": "[41]", "value": 6.6}]}]}
